ChEMBL document CHEMBL2407069, “Pyrimidone-based series of glucokinase activators with alternative donor-acceptor motif” (Bioorg Med Chem Lett, 2013)

Assays:
[1] = Lipophilicity, log D of the compound by shake-flask method; type: physicochemical; details: octanol/water
[2] = Intrinsic clearance in human liver microsomes; type: ADME, Microsome; details: read-out: CLH
[3] = Intrinsic clearance in rat liver microsomes; type: ADME, Microsome; details: read-out: CLH
[4] = Clearance in Wistar-Han rat at 1 mg/kg, iv; type: ADME, organism-based; set-up: dose 1 mg/kg, route intravenous; details: in vivo
[5] = Volume of distribution at steady state in Wistar-Han rat at 1 mg/kg, iv; type: ADME, organism-based; set-up: dose 1 mg/kg, route intravenous; details: in vivo, read-out: Vdss
[6] = Oral bioavailability in Wistar-Han rat at 5 mg/kg; type: ADME, organism-based; details: in vivo
[7] = Cmax in Wistar-Han rat at 5 mg/kg, po; type: ADME, organism-based; set-up: dose 5 mg/kg, route oral; details: in vivo
[8] = Half life in Wistar-Han rat at 1 mg/kg, iv; type: ADME, organism-based; set-up: dose 1 mg/kg, route intravenous; details: in vivo
[9] = AUC in Wistar-Han rat at 5 mg/kg, po; type: ADME, organism-based; set-up: dose 5 mg/kg, route oral; details: plasma

Compound	logD [1]	CLint scaled [2]	CLint scaled [3]	clearance [4]	Vd [5]	bioavailability [6]	Cmax [7]	half-life [8]	AUC [9]
Cc1cnc(-c2cc(Oc3cnc(C(=O)N(C)C)nc3)cc(OC(C)C)c2)[nH]c1=O	1.48	< 8 mL/min/kg	< 25.4 mL/min/kg	–	–	–	–	–	–
CNS(=O)(=O)c1ccc(Oc2cc(OC(C)C)cc(-c3nccc(=O)[nH]3)c2)cc1	2.63	< 8 mL/min/kg	–	–	–	–	–	–	–
Cc1cnc(-c2cc(Oc3ccc(S(=O)(=O)N(C)C)cc3)cc(O[C@@H](C)CO)c2)[nH]c1=O	2.26	12 mL/min/kg	–	–	–	–	–	–	–
CC(C)Oc1cc(Oc2ccc(S(C)(=O)=O)cc2)cc(-c2cccc(=O)[nH]2)c1	2.82	< 8 mL/min/kg	349 mL/min/kg	–	–	–	–	–	–
CC(C)Oc1cc(Oc2cnc(C(=O)N(C)C)cn2)cc(-c2nccc(=O)[nH]2)c1	1.34	< 8 mL/min/kg	47 mL/min/kg	–	–	–	–	–	–
CCS(=O)(=O)c1ccc(Oc2cc(O[C@@H](C)CO)cc(-c3nccc(=O)[nH]3)c2)cc1	1.42	< 8 mL/min/kg	< 25.4 mL/min/kg	19 mL/min/kg	0.746 L/kg	6%	74 ng/mL	1.8 h	253 ng·h/mL
CCC(CC)Oc1cc(Oc2cnc(C(=O)N(C)C)nc2)cc(-c2nccc(=O)[nH]2)c1	1.91	22.4 mL/min/kg	91 mL/min/kg	44 mL/min/kg	5.79 L/kg	32%	412 ng/mL	6 h	580 ng·h/mL
CC(C)Oc1cc(Oc2cnc(C(=O)N(C)C)nc2)cc(-c2nccc(=O)[nH]2)c1	0.97	< 8 mL/min/kg	< 25.4 mL/min/kg	–	–	–	–	–	–
COc1cnc(-c2cc(Oc3ccc(S(C)(=O)=O)cc3)cc(OC(C)C)c2)[nH]c1=O	2.21	< 8 mL/min/kg	< 25.4 mL/min/kg	–	–	–	–	–	–
CNS(=O)(=O)c1ccc(Oc2cc(O[C@@H](C)CO)cc(-c3ncc(C)c(=O)[nH]3)c2)cc1	2.01	< 8 mL/min/kg	< 25.4 mL/min/kg	–	–	–	–	–	–
CCc1cnc(-c2cc(Oc3ccc(S(C)(=O)=O)cc3)cc(OC(C)C)c2)[nH]c1=O	3.11	< 8 mL/min/kg	171 mL/min/kg	–	–	–	–	–	–
COC[C@H](C)Oc1cc(Oc2cnc(C(=O)N(C)C)cn2)cc(-c2nccc(=O)[nH]2)c1	0.81	< 8 mL/min/kg	< 25.4 mL/min/kg	–	–	–	–	–	–
CC(C)Oc1cc(Oc2ccc(S(C)(=O)=O)cc2)cc(-c2cncc(=O)[nH]2)c1	2.27	11 mL/min/kg	61 mL/min/kg	–	–	–	–	–	–
CN(C)C(=O)c1ncc(Oc2cc(OC3CCCC3)cc(-c3nccc(=O)[nH]3)c2)cn1	1.74	< 8 mL/min/kg	106 mL/min/kg	–	–	–	–	–	–
CC(C)Oc1cc(Oc2ccc(S(C)(=O)=O)cc2)cc(-c2ncc(Cl)c(=O)[nH]2)c1	2.04	< 8 mL/min/kg	< 25.4 mL/min/kg	–	–	–	–	–	–
CC(C)Oc1cc(Oc2ccc(S(C)(=O)=O)cc2)cc(-c2nccc(=O)[nH]2)c1	2.14	< 9.8 mL/min/kg	105 mL/min/kg	61 mL/min/kg	6.41 L/kg	29%	150 ng/mL	1.5 h	703 ng·h/mL
Cc1cnc(-c2cc(Oc3ccc(S(C)(=O)=O)cc3)cc(OC(C)C)c2)[nH]c1=O	2.68	< 8 mL/min/kg	189 mL/min/kg	13 mL/min/kg	0.746 L/kg	2%	31 ng/mL	5.3 h	141 ng·h/mL
CC(C)Oc1cc(Oc2cnc(C(=O)N(C)C)c(F)c2)cc(-c2nccc(=O)[nH]2)c1	1.54	8.3 mL/min/kg	102 mL/min/kg	–	–	–	–	–	–
Cc1cc(=O)[nH]c(-c2cc(Oc3ccc(S(C)(=O)=O)cc3)cc(OC(C)C)c2)n1	2.43	< 8 mL/min/kg	96 mL/min/kg	–	–	–	–	–	–
Cc1ccc(NC(=O)c2cc(Oc3ccc(S(C)(=O)=O)cc3)cc(OC(C)C)c2)nc1	4.05	17 mL/min/kg	97 mL/min/kg	–	–	–	–	–	–
COC[C@H](C)Oc1cc(Oc2cnc(C(=O)N(C)C)nc2)cc(-c2nccc(=O)[nH]2)c1	0.43	< 8 mL/min/kg	38 mL/min/kg	–	–	–	–	–	–
C[C@@H](CO)Oc1cc(Oc2cnc(C(=O)N(C)C)nc2)cc(-c2nccc(=O)[nH]2)c1	-0.02	< 8 mL/min/kg	26 mL/min/kg	–	–	–	–	–	–
